Test results as given in US8900444B2, “Switchable hydrophilicity solvents and methods of use thereof” (Queen's University at Kingston, priority 2009, dated 2014).

Tests used:
Type in all cases: physicochemical
[1] = Water miscibility of amidines in neutral form and after CO2
Excerpt: This represents relatively hydrophilic character. The amidines A-D are unsatisfactory for use as a switchable hydrophilicity solvent because they are insufficiently hydrophobic in their amidine form. […] Since such amidines are not separable from water after switching from their hydrophilic to hydrophobic forms, they are unsuitable for use in the present invention.
Exposure of a 1:1 by volume mixture of two immiscible liquids, hydrophobic PA and water, to gaseous CO2, at 1 atmosphere, caused a conversion to a hydrophilic liquid comprising an aqueous solution of N,N,N′-tripropylbutyramidinium bicarbonate (PAB) (see FIG. 1 for the chemical scheme in which R^1-4 are propyl). NMR data for the PA/water system is presented in FIGS. 4 and 5 and IR data in FIG. 6. FIGS. 4A and 5A show ^1H and ^13C NMR data for PA. After switching, the detection of the N,N,N′-tripropylbutyramidinium bicarbonate salt was confirmed by ^1H and ^13C NMR as shown in FIGS. 4B and 5B.
Similarly, exposure of a 1:1 by volume mixture of two immiscible liquids, hydrophobic BA and water, to gaseous CO2, at 1 atmosphere, caused a conversion to a hydrophilic liquid comprising an aqueous solution of N,N,N′-tributylpentanamidinium bicarbonate (BAB) (see FIG. 1 for the chemical scheme in which R^1-4 are butyl). NMR data for the […] is presented in FIGS. 7 and 8 and IR data in FIG. 9. […] show ^1H and ^13C NMR data for BA. After switching, the detection of the N,N,N′-tributylpentanamidinium bicarbonate salt was confirmed by ^1H and ^13C NMR as shown in FIGS. 6B and 7B. The hydrophilic aqueous solution of BAB was converted back into hydrophobic BA and water by heating at 80° C.

[2] = Qualitative switchability assessment of BA (Example 1B)
Excerpt: The BA amidine's ability to act as a switchable hydrophilicity solvent for the separation of a selected substance is dependent on its ability to switch from the hydrophobic form to a hydrophilic form. This is achieved by adding water to provide an aqueous layer and decreasing the pH of the aqueous layer, namely by dissolving CO2 in the aqueous layer. When carbon dioxide dissolves in water, it forms carbonic acid with pKa1 of 6.4. The resultant dissociation is sufficient to protonate a hydrophobic amidine, causing it to become charged forming a hydrophilic amidinium bicarbonate (BAB). In this preliminary switching study, the amidine's ability to act as a base and its ability to switch hydrophilicity were studied.
Switching behavior was studied for BA over various periods of time. A glass vial (4 mL) was prepared, containing distilled water (1.0 mL) and BA amidine (0.5 mL).
CO2 was bubbled through the vial for roughly 30 minutes, until the top layer had disappeared showing that a hydrophilic solution of BAB in water had been formed.
A magnetic stirrer was placed in the vial. The vial was suspended in an 80° C. oil bath and stirred. The vial was intermittently removed from the bath and monitored for the presence of a second layer after 20, 50 and 75 minutes. The formation of a second layer (hydrophobic BA) was noted after 20 minutes in the oil bath.

[3] = Quantitative switching study of BA by 1H NMR (Example 1D)
Protocol: A methanol-d4 solution was prepared containing a sodium acetate internal standard (48.8 mM).
Two 4 mL glass vials containing 1.0 mL D2O and 0.5 mL BA were prepared and shaken. A 50 μL sample was withdrawn from each layer of one vial and combined with 0.50 mL of the sodium acetate standard solution in each of two NMR tubes: the top layer (BA) in a first tube; the bottom layer (aqueous) in a second tube.
Carbon dioxide was bubbled through the unsampled vial until the BA had completely converted to BAB, as evidenced by the disappearance of the top layer. The pH of the solution was measured using pH paper to be approximately 8-9. A 50 μL sample was withdrawn from the BAB/D2O solution and added to 0.50 mL of the sodium acetate standard solution in a third NMR tube.
The 4.0 mL vial from which the last NMR sample was withdrawn was then heated at 80° C. for 1 h and stirred by a magnetic stirrer. Bubbles of CO2 were observed escaping from the solution and a top layer, hydrophobic amidine, appeared. After cooling the vial to room temperature, a 50 μL sample was withdrawn from each layer and combined with 0.50 mL of the sodium acetate standard in two NMR tubes: the top layer (BA) in a fourth tube; the bottom layer (aqueous) in a fifth tube.
The NMR spectra of all five samples are shown in FIG. 10 with the first to fifth tubes shown from top to bottom. […] In addition, using the ‘c’ and ‘d’ protons provided stronger signals, to improve accuracy. Based on the strength of the ‘c’ and ‘d’ signals, 11% of the BA remained in the aqueous phase as BAB after the experiment
Using dioxane as the internal standard gave the same results (11% BAB retention in the aqueous phase) as sodium acetate.
The same experiment was repeated except that the temperature of the heating of the 4.0 mL vial was increased from 80° C. to 90° C. A similar retention of BAB in the aqueous phase (12%) was observed.

[4] = Polarity study with solvatochromatic dye Nile Red (Example 3); conditions: water-saturated BA or aqueous solution of BAB
Protocol: The maximum wavelength of absorption, λmax, of a switchable hydrophilicity solvent, N,N,N′-tributylpentanamidine (BA), was analyzed in its hydrophobic and hydrophilic forms using the solvatochromatic dye, Nile Red. A 1 Dram vial was prepared containing 1 mL of distilled water to which 1 mL of BA was added. […] This ensured saturation of the BA phase with water. The top phase comprising the BA liquid was pipetted into a quartz cuvette (Semi-Micro Cells, Self Masking Black Walls Spectrosil® Quartz, Starna Cells, Atascadero, Calif., USA) and 1 mg of Nile Red was added, to provide a bright orange-magenta solution. The ultraviolet absorbance spectrum was acquired on an Agilent Technologies ultraviolet/visible spectrometer 50-60 Hz with UV-Visible Chemstation software. The λmax was 510 nm. Distilled water (1.0 mL) was then added to the quartz cuvette and carbon dioxide was slowly bubbled into the mixture for 1 hour to switch the BA to its ionic form, N,N,N′-tributylpentanamidinium bicarbonate (BAB), after which the homogenous mixture turned purple. The ultraviolet absorbance spectrum of the aqueous solution of the dye and ionic salt was then acquired as discussed in the previous paragraph. The λmax was 570 nm.

miscibility with water after CO2 trigger (amidinium bicarbonate form) ([1]; CO2 and water): became miscible | miscibility with water, neutral (unprotonated) amidine form ([1]; no CO2): immiscible with water | time of CO2 bubbling until top layer disappeared ([2]; 1.0 mL water + 0.5 mL BA): roughly 30 minutes | heating time to formation of second (hydrophobic) layer ([2]; 80 °C oil bath, stirred): 20 min | BA remaining in the aqueous phase as BAB after heating ([3]; 80 °C, 1 h, sodium acetate internal standard): 11% | BA recovered when amidinium bicarbonate solution is heated ([3]; from 1H NMR peak integrations): 89% | maximum wavelength of absorption (λmax) of Nile Red [4]: 510 nm
SMILES: CCCCN=C(CCCC)N(CCCC)CCCC [BA, N,N,N′-tributylpentanamidine]
